Data reported in publication PMC11650849, “Brain endothelial permeability, transport, and flow assessed over 10 orders of magnitude using the in situ brain perfusion technique” (Fluids and Barriers of the CNS, 2024).
Like-named read-outs stand apart in the source and are kept apart here.

Legend:
[1] = Octanol/water partition and distribution coefficients; conditions: for Log Doct 7.4: octanol distribution coefficient, pH 7.4; for Log Poct: octanol partition coefficient
Lat-1 = Lat-1 (Rattus norvegicus, UniProt Q63016)
Chain of Lat-1 (Q63016 whole entry): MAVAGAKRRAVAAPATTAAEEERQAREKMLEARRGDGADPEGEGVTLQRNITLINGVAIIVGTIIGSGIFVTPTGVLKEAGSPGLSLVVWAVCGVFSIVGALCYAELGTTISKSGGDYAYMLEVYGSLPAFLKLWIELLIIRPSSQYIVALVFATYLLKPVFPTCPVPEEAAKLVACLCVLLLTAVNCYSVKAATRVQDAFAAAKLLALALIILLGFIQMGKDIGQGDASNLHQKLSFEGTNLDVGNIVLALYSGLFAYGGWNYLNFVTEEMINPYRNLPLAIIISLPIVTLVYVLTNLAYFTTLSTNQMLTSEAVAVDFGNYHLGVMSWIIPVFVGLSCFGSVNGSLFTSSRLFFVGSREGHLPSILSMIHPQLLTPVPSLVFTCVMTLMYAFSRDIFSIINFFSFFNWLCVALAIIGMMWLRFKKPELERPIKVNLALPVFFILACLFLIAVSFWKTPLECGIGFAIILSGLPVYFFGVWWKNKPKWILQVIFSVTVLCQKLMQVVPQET
Chain of Lat-1 (Q794F9 whole entry partner): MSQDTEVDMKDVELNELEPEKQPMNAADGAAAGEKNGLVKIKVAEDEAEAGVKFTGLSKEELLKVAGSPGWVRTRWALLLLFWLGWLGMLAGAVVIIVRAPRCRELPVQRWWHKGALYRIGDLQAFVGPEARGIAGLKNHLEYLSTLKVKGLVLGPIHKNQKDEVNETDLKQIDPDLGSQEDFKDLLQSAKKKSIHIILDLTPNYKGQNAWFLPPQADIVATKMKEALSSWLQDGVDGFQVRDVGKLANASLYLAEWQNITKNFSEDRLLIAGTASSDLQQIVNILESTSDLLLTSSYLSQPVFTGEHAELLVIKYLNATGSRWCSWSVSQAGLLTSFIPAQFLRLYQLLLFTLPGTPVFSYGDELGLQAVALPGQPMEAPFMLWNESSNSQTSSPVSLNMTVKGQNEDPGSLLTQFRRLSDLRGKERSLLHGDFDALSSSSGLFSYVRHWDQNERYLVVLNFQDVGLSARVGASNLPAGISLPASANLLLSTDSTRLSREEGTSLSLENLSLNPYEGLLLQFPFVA

[2] = ref Hansch et al. [123], Avdeef [46] or other sources, cited from earlier work; for Log Poct: octanol partition coefficient
[3] = Neutral fraction at pH 7.4 calculated from pKa; assay type: physicochemical; conditions: neutral fraction at perfusion fluid pH 7.40, calculated from pKa
[4] = rat, in vivo, pH 7.4
[5] = rat in vivo measurements; cited from earlier work
[6] = rat in vivo measurements; cited from earlier work; remark: listed apart in the source
[7] = for Brain Kin: calculated at brain blood flow […] and rat serum fu; for Extraction (unbound) / Brain vascular extraction (total): calculated at brain blood flow […]; for Extraction (unbound): free drug; for Brain vascular extraction (total): with rat serum fu
[8] = rat
[9] = In situ rat brain perfusion (brain uptake Kin, extraction E, BBB PS)

| SMILES | Log Doct 7.4 [1] | Log Poct [2] | Log Doct pH=7.4 [2] | fn (%) [3] [%] | Log Pc [4] | Log PoS [4] | Pc [4] [×10⁻⁶ cm/s] | PcS [4] [mL/s/g] | PoS [4] [mL/s/g] | Log Po [4] | Po [4] [cm/s] | Brain Vu,br [5] [mL/g] | fu,.p [6] | Brain Kin [7] [mL/s/g] | Extraction (unbound) [7] [%] | Brain vascular extraction (total) [7] [%] | half-life ([8]; brain) [min] | other results |
| --- | --- | --- | --- | --- | --- | --- | --- | --- | --- | --- | --- | --- | --- | --- | --- | --- | --- | --- |
| N[C@H](C(=O)O)[C@@H]1CC(Cl)=NO1 [Acivicin] | −2.63 | – | – | – | – | – | – | – | – | – | – | – | – | – | – | – | – | Log Poct [1]: −0.31; LogPS (Lat-1; LAT1 substrates, tracer concentration): −3.32; PS (Lat-1; LAT1 substrates, tracer concentration, perfusion 15-30 s): 0.000479 mL/s/g |
| Nc1ncnc2nc[nH]c12 [Adenine] | −2.12 | – | – | – | – | – | – | – | – | – | – | – | – | – | – | – | – | – |
| Nc1ncnc2c1ncn2[C@@H]1O[C@H](CO)[C@@H](O)[C@H]1O [Adenosine] | −1.02 | – | – | – | – | – | – | – | – | – | – | – | – | – | – | – | – | – |
| OC[C@@H](O)[C@@H](O)CO [Erythritol] | – | −2.29 | −2.29 | 100 | −6.49 | −4.49 | 0.324 | 3.2e-05 | 3.24e-05 | −6.49 | 3.24e-07 | 0.50 | 1.00 | 9.27e-05 | 0.15 | 0.15 | 160 | – |
| CC(C(=O)O)c1ccc(-c2ccccc2)c(F)c1 (stereo not shown) [Flurbiprofen] | – | 3.99 | 0.91 | 0.06 | −3.64 | 1.58 | 230 | 0.023 | 38.2 | −0.42 | 0.38 | 7.76 | 6.3E−03 | 0.000144 | 61.6 | 0.60 | 3.9 | – |
| O=C(CO)[C@@H](O)[C@H](O)[C@H](O)CO [Fructose] | – | −3.20 | −3.20 | 100 | – | – | – | – | – | – | – | 0.08 | 1.00 | 5.74e-06 | 2.39E-04 | 2.39E-04 | – | Log Pc ([9]; Pc in cm/s): −7.24; Log Po ([9]; Po in cm/s): −7.24; Log PoS ([9]; PoS in mL/s/g): −5.24; Pc ([9]; S assumed 100 cm^2/g): 0.0574 ×10⁻⁶ cm/s; Po ([9]; S assumed 100 cm^2/g): 0.0574 ×10⁻⁶ cm/s; PoS ([9]; brain vascular intrinsic PoS): 5.74e-06 mL/s/g; PcS ([9]; cerebral cortex, flow 0.1–[…], S = physiological saline, AB = artificial blood): 5.74e-06 mL/s/g; PoS ([9]; intrinsic PS of neutral solute, PoS = PcS/fn, flow 0.1–[…]): 5.74e-06 mL/s/g; half-life [8]: 168 min |
| NCC1(CC(=O)O)CCCCC1 [Gabapentin] | −1.4 | – | – | – | – | – | – | – | – | – | – | – | – | – | – | – | – | Log Poct [1]: 1.19; LogPS (Lat-1; rat, in vivo, pH 7.4): −2.33; PS (Lat-1; rat, in vivo, pH 7.4): 0.00473 mL/s/g |
| Nc1ccn([C@@H]2O[C@H](CO)[C@@H](O)C2(F)F)c(=O)n1 [Gemcitabine] | −1.36 | – | – | – | – | – | – | – | – | – | – | – | – | – | – | – | – | Log Poct [1]: −0.470 |
| OCC(O)CO [Glycerol] | – | −1.76 | −1.76 | 100 | −6.08 | −4.08 | 0.829 | 8.3e-05 | 8.29e-05 | −6.08 | 8.29e-07 | 1.04 | 1.00 | 1.7e-06 | 0.34 | 0.34 | 145 | – |
| COc1ccc2c(c1)c(CC(=O)O)c(C)n2C(=O)c1ccc(Cl)cc1 [Indomethacin] | – | 3.51 | 0.68 | 0.05 | −4.12 | – | 76.6 | 0.0077 | – | −0.84 | 0.15 | 13.0 | 5.7E−03 | 4.37e-05 | 27.3 | 0.18 | 19.6 | – |
| Cc1c(I)c(=O)n(-c2ccccc2)n1C [Iodoantipyrine] | – | 1.27 | 1.27 | 100 | −2.81 | −0.81 | 1560 | 0.16 | 0.16 | −2.81 | 0.00156 | 2 | 0.50 | 0.0231 | 99.8 | 96.1 | 0.5 | BBB PcS [4]: 0.156 mL/s/g; Percentage printed beside the uptake curves (measure not given) [4]: 79%; Peak flow rate for 90% E ([7]; protein-free physiologic saline pH 7.4): 4.1 mL/min/g; Maximal flow—90% extraction, PcS/2.3 ([7]; protein-free saline, pH 7.4): 0.068 mL/s/g |
| OC[C@@H](O)[C@@H](O)[C@H](O)[C@H](O)CO [Mannitol] | – | −3.10 | −3.10 | 100 | −7.06 | −5.06 | 0.088 | 8.8e-06 | 8.8e-06 | −7.06 | 8.8e-08 | 0.08 | 1.00 | 8.8e-06 | 3.67E-04 | 3.67E-04 | 109 | – |
| N[C@@H](Cc1ccc(N(CCCl)CCCl)cc1)C(=O)O [Melphalan (para)] | −1.03 | – | – | – | – | – | – | – | – | – | – | – | – | – | – | – | – | Log Poct [1]: 1.79 |
| Fc1ccc([C@@H]2CCNC[C@H]2COc2ccc3c(c2)OCO3)cc1 [Paroxetine] | – | 3.50 | 1.00 | 0.32 | −2.91 | 1.59 | 1230 | 0.12 | 39.0 | −0.41 | 0.39 | 852.0 | 0.015 | 0.00164 | 99.4 | 7.4 | 83 | BBB PcS [4]: 0.12 ± 0.02 mL/s/g |
| O=C1NC(=O)C(c2ccccc2)(c2ccccc2)N1 [Phenytoin] | – | 2.24 | 2.17 | 88.4 | −3.58 | −1.53 | 263 | 0.026 | 0.0298 | −3.53 | 0.000298 | 12.7 | 0.15 | 0.00364 | 66.6 | 15.2 | 6.02 | – |
| OC[C@H]1O[C@H](OC[C@H]2O[C@H](O[C@]3(CO)O[C@H](CO)[C@@H](O)[C@@H]3O)[C@H](O)[C@@H](O)[C@@H]2O)[C@H](O)[C@@H](O)[C@H]1O [Raffinose] | – | −3.89 | −3.89 | 100 | −8.02 | −6.02 | 0.0095 | 9.5e-07 | 9.5e-07 | −8.02 | 9.5e-09 | 0.03 | 1.00 | 9.5e-07 | 3.96E-05 | 3.96E-05 | 405 | – |
| COC(=O)[C@H]1[C@H]2C[C@@H]3c4[nH]c5cc(OC)ccc5c4CCN3C[C@H]2C[C@@H](OC(=O)c2cc(OC)c(OC)c(OC)c2)[C@@H]1OC [Reserpine] | – | 1.54 | 1.46 | 83.37 | −3.05 | −0.97 | 898 | 0.09 | 0.11 | −2.97 | 0.00108 | 5 | 0.10 | 0.00749 | 97.6 | 31.2 | 0.77 | – |
| Cn1nnc2c(C(N)=O)ncn2c1=O [Temozolamide] | – | −1.04 | −1.04 | 100 | −4.79 | −2.79 | 16.3 | 0.0016 | 0.00163 | −4.79 | 1.63e-05 | 1.05 | 0.80 | 0.00464 | 4.3 | 5.3 | 7.65 | – |
| CCCC(CCC)C(=O)O [Valproic acid] | – | 2.71 | 0.21 | 0.16 | −4.04 | 0.46 | 91.9 | 0.0092 | 2.92 | −1.54 | 0.0292 | 1.43 | 0.18 | 0.0016 | 31.8 | 6.7 | 1.86 | – |
